# Experimental data: US20230053540A1, “TREATMENT OF LIVER INJURY” (Massachusetts Institute of Technology, priority 2019, published 2023)
# Tested on: hepatocytes
# Assay: Seq-Well scRNA-Seq of hepatocytes after APAP overdose (signature scores, DEG vs untreated)
# Type: in vivo, mouse
# [1] = cluster A96 (APAP, 96 h) vs other clusters, Wilcox
# [2] = cluster A96, DEG between treatment (APAP and PH)
structure (smiles),measurement,setting,value
"CC(=O)Nc1ccc(O)cc1 [APAP, acetaminophen]",Acaa1b avg_logFC,[1],0.282
same,Acat1 avg_logFC,[1],0.2558
same,Acot1 avg_logFC,[1],0.3106
same,Agpat6 avg_logFC,[1],0.3143
same,Agt avg_logFC,[1],0.255
same,Akr1d1 avg_logFC,[1],0.2994
same,Aldh9a1 avg_logFC,[1],0.2585
same,Apo17a avg_logFC,[1],0.2518
same,Apoc2 avg_logFC,[1],0.2781
same,Aqp9 avg_logFC,[1],0.3178
same,Arl4a avg_logFC,[1],0.2706
same,Asl avg_logFC,[1],0.275
same,Baat avg_logFC,[1],0.2728
same,Bnip3 avg_logFC,[1],0.3208
same,Cd36 avg_logFC,[1],0.3129
same,Ces1e avg_logFC,[1],0.2566
same,Cox5a avg_logFC,[1],0.2728
same,Cox6a1 avg_logFC,[1],0.2746
same,Cox8a avg_logFC,[1],0.2519
same,Cpeb4 avg_logFC,[1],0.3011
same,Cpox avg_logFC,[1],0.3229
same,Cpt1a avg_logFC,[1],0.2626
same,Creg1 avg_logFC,[1],0.2517
same,Csad avg_logFC,[1],0.4207
same,Ctage5 avg_logFC,[1],0.2535
same,Cth avg_logFC,[1],0.2966
same,Cxcl12 avg_logFC,[1],0.2822
same,D4Wsu53e avg_logFC,[1],0.2928
same,Decr2 avg_logFC,[1],0.3018
same,Dhdh avg_logFC,[1],0.2626
same,Etfdh avg_logFC,[1],0.2639
same,Etnppl avg_logFC,[1],0.3154
same,Fmo1 avg_logFC,[1],0.265
same,G0s2 avg_logFC,[1],0.2656
same,G6pc avg_logFC,[1],0.2541
same,Gabarapl1 avg_logFC,[1],0.2932
same,Gadd45b avg_logFC,[1],0.2598
same,Gas5 avg_logFC,[1],0.2823
same,Gm4952 avg_logFC,[1],0.2581
same,Gsta2 avg_logFC,[1],0.311
same,Gstt3 avg_logFC,[1],0.3026
same,Gyk avg_logFC,[1],0.3134
same,Hmgcl avg_logFC,[1],0.2744
same,Hmgcs1 avg_logFC,[1],0.3251
same,Hpgd avg_logFC,[1],0.3412
same,Hsd17b7 avg_logFC,[1],0.3028
same,Hsd17b10 avg_logFC,[1],0.2802
same,Kif1b avg_logFC,[1],0.2961
same,Leaf avg_logFC,[1],0.2616
same,Mia3 avg_logFC,[1],0.2605
same,Ndufa3 avg_logFC,[1],0.2743
same,Ndufa7 avg_logFC,[1],0.26
same,Nr1i3 avg_logFC,[1],0.3481
same,Oat avg_logFC,[1],0.4904
same,Pon1 avg_logFC,[1],0.2899
same,Ppp1r3b avg_logFC,[1],0.251
same,Ppp2r5a avg_logFC,[1],0.3505
same,Ptms avg_logFC,[1],0.2863
same,Pxmp4 avg_logFC,[1],0.2555
same,Rdh16 avg_logFC,[1],0.3477
same,Sc4mol avg_logFC,[1],0.3361
same,Slc4a4 avg_logFC,[1],0.2977
same,Slc25a20 avg_logFC,[1],0.2507
same,Slco1a4 avg_logFC,[1],0.3049
same,Snord118 avg_logFC,[1],0.3782
same,Tgoln1 avg_logFC,[1],0.2809
same,Tmed5 avg_logFC,[1],0.2523
same,Tobi avg_logFC,[1],0.2958
same,Tsc22d3 avg_logFC,[1],0.3362
same,Zfp36l1 avg_logFC,[1],0.2964
same,Zfp91 avg_logFC,[1],0.2775
same,"avg_logFC, gene Abcc3",[2],0.2743
same,"avg_logFC, gene Acaa1b",[2],0.282
same,"avg_logFC, gene Acat1",[2],0.2558
same,"avg_logFC, gene Acot1",[2],0.3106
same,"avg_logFC, gene Agpat6",[2],0.3143
same,"avg_logFC, gene Agt",[2],0.255
same,"avg_logFC, gene Akr1d1",[2],0.2994
same,"avg_logFC, gene Aldh9a1",[2],0.2585
same,"avg_logFC, gene Aplp2",[2],0.2903
same,"avg_logFC, gene Apo17a",[2],0.2518
same,"avg_logFC, gene Apoc2",[2],0.2781
same,"avg_logFC, gene Aqp9",[2],0.3178
same,"avg_logFC, gene Arl4a",[2],0.2706
same,"avg_logFC, gene Asl",[2],0.275
same,"avg_logFC, gene Baat",[2],0.2728
same,"avg_logFC, gene Bnip3",[2],0.3208
same,"avg_logFC, gene Cd36",[2],0.3129
same,"avg_logFC, gene Ces1e",[2],0.2566
same,"avg_logFC, gene Cox5a",[2],0.2728
same,"avg_logFC, gene Cox6a1",[2],0.2745
same,"avg_logFC, gene Cox8a",[2],0.2519
same,"avg_logFC, gene Cpeb4",[2],0.3011
same,"avg_logFC, gene Cpox",[2],0.3229
same,"avg_logFC, gene Cpt1a",[2],0.2626
same,"avg_logFC, gene Creg1",[2],0.2517
same,"avg_logFC, gene Csad",[2],0.4207
same,"avg_logFC, gene Ctage5",[2],0.2535
same,"avg_logFC, gene Cth",[2],0.2966
same,"avg_logFC, gene Cxcl12",[2],0.2821
same,"avg_logFC, gene D4Wsu53e",[2],0.2928
